Experimental data from US8609692B2, “TRPV1 antagonists” (AbbVie Inc., priority 2008, dated 2013).

Experiments:
[1] = molecular target: T1, human TRPV1 receptor (hTRPV1) (Homo sapiens, UniProt Q8NER1); assay: Capsaicin activation assay (Ca2+ influx, FLIPR); format: cell-based; conditions: 0.05 μM capsaicin, 1321N1 cells expressing hTRPV1
T1 construct: expressed in transfected cells
Method: Dulbecco's modified Eagle medium (D-MEM) (with 4.5 mg/mL glucose) and fetal bovine serum were obtained from Hyclone Laboratories, Inc. (Logan, Utah). Dulbecco's phosphate-buffered saline (D-PBS) (with 1 mg/mL glucose and 3.6 mg/l Na pyruvate, without phenol red), L-glutamine, hygromycin B, and Lipofectamine® were obtained from Life Technologies (Grand Island, N.Y.). G418 sulfate was obtained from Calbiochem-Novabiochem Corp. (San Diego, Calif.). Capsaicin (8-methyl-N-vanillyl-6-nonenamide) was obtained from Sigma-Aldrich, Co. (St. Louis, Mo.). Fluo-4 AM (N-[4-[6-[(acetyloxy)methoxy]-2,7-difluoro-3-oxo-3H-xanthen-9-yl]-2-[2-[2-[bis[2-[(acetyloxy)methoxy]-2-oxyethyl]amino]-5-methyl-phenoxy]ethoxy]phenyl]-N-[2-[(acetyloxy)methoxy]-2-oxyethyl]-glycine, (acetyloxy)methyl ester) was purchased from Molecular Probes (Eugene, Oreg.).
The cDNAs for the human TRPV1 receptor (hTRPV1) were isolated by reverse transcriptase-polymerase chain reaction (RT-PCR) from human small intestine poly A+RNA supplied by Clontech (Palo Alto, Calif.) using primers designed surrounding the initiation and termination codons identical to the published sequences (Hayes et al. Pain 2000, 88, 205-215). The resulting cDNA PCR products were subcloned into pCIneo mammalian expression vector (Promega) and fully sequenced using fluorescent dye-terminator reagents (Prism, Perkin-Elmer Applied Biosystems Division) and a Perkin-Elmer Applied Biosystems Model 373 DNA sequencer or Model 310 genetic analyzer. Expression plasmids encoding the hTRPV1 cDNA were transfected individually into 1321N1 human astrocytoma cells using Lipofectamine®. Forty-eight hours after transfection, the neomycin-resistant cells were selected with growth medium containing 800 μg/mL Geneticin (Gibco BRL). Surviving individual colonies were isolated and screened for TRPV1 receptor activity. Cells expressing recombinant homomeric TRPV1 receptors were maintained at 37° C. in D-MEM containing 4 mM L-glutamine, 300 μg/mL G418 (Cal-biochem) and 10% fetal bovine serum under a humidified 5% CO2 atmosphere.
The functional activity of compounds at the TRPV1 receptor was determined with a Ca^2+ influx assay and measurement of intracellular Ca^2+ levels ([Ca^2+]i). All compounds were tested over an 11-point half-log concentration range. Compound solutions were prepared in D-PBS (4× final concentration), and diluted serially across 96-well v-bottom tissue culture plates using a Biomek 2000 robotic automation workstation (Beckman-Coulter, Inc., Fullerton, Calif.). A 0.2 μM solution of the TRPV1 agonist capsaicin was also prepared in D-PBS. The fluorescent Ca^2+ chelating dye Fluo-4 AM was used as an indicator of the relative levels of [Ca^2+]i in a 96-well format using a Fluorescence Imaging Plate Reader (FLIPR) (Molecular Devices, Sunnyvale, Calif.). Cells were grown to confluency in 96-well black-walled tissue culture plates. Then, prior to the assay, the cells were loaded with 100 μL per well of Fluo-4 AM (2 μM, in D-PBS) for 1-2 hours at 23° C. Washing of the cells was performed to remove extracellular Fluo-4 AM (2×1 mL D-PBS per well), and afterward, the cells were placed in the reading chamber of the FLIPR instrument. 50 μL of the compound solutions were added to the cells at the 10 second time mark of the experimental run. Then, after a 3-minute time delay, 50 μL of the capsaicin solution was added at the, 190 second time mark (0.05 μM final concentration)(final volume=200 μL) to challenge the TRPV1 receptor. Time length of the experimental run was 240 seconds. Fluorescence readings were made at 1 to 5 second intervals over the course of the experimental run. The peak increase in relative fluorescence units (minus baseline) was calculated from the 190 second time mark to the end of the experimental run, and expressed as a percentage of the 0.05 μM capsaicin (control) response. […]

human TRPV1 = molecular target: T2, human TRPV1 (Homo sapiens, UniProt Q8NER1); assay: Acid activation assay - ratiometric calcium imaging of capsaicin- or acid-induced responses; format: cell-based; conditions: Example 30 at 3 μM, HEK293-F cells expressing human TRPV1, FIG. 1; for block of TRPV1-mediated increase in intracellular calcium concentration in response to capsaicin: capsaicin 1 μM; for block of TRPV1-mediated increase in intracellular calcium concentration in response to acid: pH 5.5
T2 construct: expressed in transfected cells; host or cells: HEK293-F cells, transient transfection
T2 sequence (Q8NER1 whole entry): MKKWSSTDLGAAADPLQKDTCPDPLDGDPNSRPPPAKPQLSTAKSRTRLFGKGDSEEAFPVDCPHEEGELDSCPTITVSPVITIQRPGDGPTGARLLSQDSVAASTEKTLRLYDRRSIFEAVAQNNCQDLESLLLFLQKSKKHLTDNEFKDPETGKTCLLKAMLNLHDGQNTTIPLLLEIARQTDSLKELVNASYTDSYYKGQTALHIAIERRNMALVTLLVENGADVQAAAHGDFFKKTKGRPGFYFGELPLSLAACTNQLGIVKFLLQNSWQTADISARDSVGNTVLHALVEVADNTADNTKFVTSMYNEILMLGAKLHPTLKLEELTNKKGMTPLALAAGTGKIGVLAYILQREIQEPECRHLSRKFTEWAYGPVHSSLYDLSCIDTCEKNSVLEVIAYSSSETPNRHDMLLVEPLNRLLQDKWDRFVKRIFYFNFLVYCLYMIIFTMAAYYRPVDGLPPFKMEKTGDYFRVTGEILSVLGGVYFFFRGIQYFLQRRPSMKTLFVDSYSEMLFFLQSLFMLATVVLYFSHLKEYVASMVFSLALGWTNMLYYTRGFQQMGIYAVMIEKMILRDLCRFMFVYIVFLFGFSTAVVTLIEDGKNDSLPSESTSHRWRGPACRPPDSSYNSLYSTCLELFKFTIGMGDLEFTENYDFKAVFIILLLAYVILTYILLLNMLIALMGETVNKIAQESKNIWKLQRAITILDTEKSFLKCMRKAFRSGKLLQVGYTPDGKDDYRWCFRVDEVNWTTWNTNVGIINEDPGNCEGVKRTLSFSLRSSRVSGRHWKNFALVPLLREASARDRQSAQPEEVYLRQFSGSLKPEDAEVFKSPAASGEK
Method: The differential effects of TRPV1 antagonists on capsaicin- or acid-induced responses were verified by ratiometric calcium imaging. Transiently transfected HEK293-F cells expressing human TRPV1 were incubated with 5 μM Fura-2AM for 30 minutes at 37° C. Intracellular calcium concentration was measured on an imaging system consisting of the X-Cite™ 120 Fluorescence Illumination System (EXFO) and a Digital Camera (C4742-95, Hamamatsu Photonics) connected to an Olympus 1×71 microscope. Through the control of Slide Book 4.2 software, fluorescence was measured during excitation at 340 and 380 nm; the ratio of the fluorescence at both excitation wavelengths (F340/F380) was monitored. D-PBS, pH 7.4 (Invitrogen, catalog no. 14287) was used as the extracellular solution. Acidic buffer was prepared by titrating D-PBS, pH 7.4 with 7 N HCl to pH 5.5. Agonists and antagonists were prepared in the pH 7.4 or 5.5 solutions. Rapid solution switch was achieved by using a ValveLink system. […] Over the 2100-second time course, the cells were continuously perfused with D-PBS, pH7.4 or challenged sequentially with solutions containing Example 30 (3 μM), Example 30 (3 μM) plus capsaicin (1 μM), Example 30 (3 μM) plus acid (pH 5.5), acid (pH 5.5) alone, or capsaicin (1 μM) alone. The black bars above the traces designate addition and duration of solution applications. Spaces between horizontal bars represent periods in which cells were perfused with D-PBS, pH 7.4.

[2] = Rat telemetry protocol (core body temperature); format: in vivo; conditions: core body temperature of rats at one hour post dosing (100 μmol/kg, p.o.), relative to vehicle
Method: Male, Sprague Dawley rats, 225-250 grams were anesthetized with Sevoflurane (Abbott Laboratories). Rats were placed on a heating pad and covered with a sterile surgical drape. A ventral midline abdominal incision was made and sterile cotton tip applicators were used to gently move internal tissue and expose the abdominal aorta for implantation of the telemetry catheter (Data Sciences International; TL11M2-050-PXT). Blood flow was temporarily stopped to the lower extremities (5-7 min) with Diffenbach clamps to allow the insertion of the telemetry catheter into the abdominal aorta. Once inserted, a sterile cellulose patch was placed over the catheter/aorta and secured using a small amount of tissue adhesive (Vetbond, 3M). Once catheter placement was complete, the clamps were removed and blood flow was restored to the lower extremities. The transmitter was placed in the intraperitoneal cavity. The transmitter suture rib was sewn into the abdominal sutures to secure it in place. The skin was closed using sterile wound clips and the animal removed from Sevoflurane. Buprenex ([…] s.c.; Phoenix) was administered for post-operative analgesia. Animals were maintained on a heating pad until ambulatory, and then individually housed with food and water ad lib. Surgical staples were removed after 7-10 days post-implantation. Rats were allowed a 2-week post-surgical recovery period before treatment with test compound. Oral dosing (p.o.) was at time zero, with rats receiving a single dose of vehicle (10% EtOH, 20% Tween-80, 70% PEG-400) or a 100 μmol/kg dose of compound dissolved in vehicle. Temperature measurements were recorded every 15 minutes for the duration of the study (24 hours).
The term “core body temperature” as used herein, means the temperature measured in the intraperitoneal cavity.

T1 sequence (Q8NER1 whole entry): as above

IC50 [1] | block of TRPV1-mediated increase in intracellular calcium concentration in response to capsaicin (human TRPV1) | block of TRPV1-mediated increase in intracellular calcium concentration in response to acid (human TRPV1) | Compound | Δ Temp [2]
20 nM | completely blocked | completely blocked | CC1(C)C[C@@H](NC(=O)Nc2cccc3c2C[C@@H](O)CC3)c2ccc(F)cc2O1 [Example 31, N-[(4R)-7-fluoro-2,2-dimethyl-3,4-dihydro-2H-chromen-4-yl]-N′-[(7S)-7-hydroxy-5,6,7,8-tetrahydronaphthalen-1-yl]urea] | 1.0 °C
17 nM | completely blocked | completely blocked | CC1(C)C[C@@H](NC(=O)Nc2cccc3c2C[C@H](O)CC3)c2ccc(F)cc2O1 [Example 30, N-[(4R)-7-fluoro-2,2-dimethyl-3,4-dihydro-2H-chromen-4-yl]-N′-[(7R)-7-hydroxy-5,6,7,8-tetrahydronaphthalen-1-yl]urea] | 1.1 °C
32 nM | – | – | CC1(C)C[C@@H](NC(=O)Nc2cccc3c2C[C@@H](O)CC3)c2cc(F)ccc2O1 [Example 3, N-[(4R)-6-fluoro-2,2-dimethyl-3,4-dihydro-2H-chromen-4-yl]-N′-[(7S)-7-hydroxy-5,6,7,8-tetrahydronaphthalen-1-yl]urea] | 0.6 °C
20 nM | – | – | CCC1(CC)C[C@@H](NC(=O)Nc2cccc3c2C[C@H](O)CC3)c2cccc(F)c2O1 [Example 52, N-[(4R)-2,2-diethyl-8-fluoro-3,4-dihydro-2H-chromen-4-yl]-N′-[(7R)-7-hydroxy-5,6,7,8-tetrahydronaphthalen-1-yl]urea] | 1.2 °C
21 nM | – | – | CC1(C)C[C@@H](NC(=O)Nc2cccc3c2C[C@@H](O)CC3)c2ccc(F)c(Cl)c2O1 [Example 109, N-[(4R)-8-chloro-7-fluoro-2,2-dimethyl-3,4-dihydro-2H-chromen-4-yl]-N′-[(7S)-7-hydroxy-5,6,7,8-tetrahydronaphthalen-1-yl]urea] | 1.2 °C
14 nM | – | – | Cn1ncc2c(NC(=O)N[C@@H]3CC(C)(C)Oc4cc(C(F)(F)F)ccc43)cccc21 [Example 33, N-[(4R)-2,2-dimethyl-7-(trifluoromethyl)-3,4-dihydro-2H-chromen-4-yl]-N′-(1-methyl-1H-indazol-4-yl)urea] | 1.4 °C
34 nM | – | – | O=C(Nc1cccc2c1C[C@@H](O)CC2)N[C@@H]1CC(CF)(CF)Oc2cc(C(F)(F)F)ccc21 [Example 112, N-[(4R)-2,2-bis(fluoromethyl)-7-(trifluoromethyl)-3,4-dihydro-2H-chromen-4-yl]-N′-[(7S)-7-hydroxy-5,6,7,8-tetrahydronaphthalen-1-yl]urea] | 1.4 °C
52 nM | – | – | Cn1ncc2c(NC(=O)N[C@@H]3CC(C)(C)Oc4cc(F)ccc43)cccc21 [Example 24, N-[(4R)-7-fluoro-2,2-dimethyl-3,4-dihydro-2H-chromen-4-yl]-N′-(1-methyl-1H-indazol-4-yl)urea] | 1.3 °C
13 nM | – | – | CC1(C)C[C@@H](NC(=O)Nc2cccc3[nH]ncc23)c2ccc(F)cc2O1 [Example 29, N-[(4R)-7-fluoro-2,2-dimethyl-3,4-dihydro-2H-chromen-4-yl]-N′-1H-indazol-4-ylurea] | 1.2 °C
9 nM | – | – | CCC1(CC)C[C@@H](NC(=O)Nc2cccc3c2C[C@@H](O)CC3)c2cc(F)ccc2O1 [Example 73, N-[(4R)-2,2-diethyl-6-fluoro-3,4-dihydro-2H-chromen-4-yl]-N′-[(7S)-7-hydroxy-5,6,7,8-tetrahydronaphthalen-1-yl]urea] | 0.9 °C
53 nM | – | – | O=C(Nc1cccc2c1C[C@@H](O)CC2)N[C@@H]1CC(CF)(CF)Oc2c(F)cccc21 [Example 107, N-[(4R)-8-fluoro-2,2-bis(fluoromethyl)-3,4-dihydro-2H-chromen-4-yl]-N′-[(7S)-7-hydroxy-5,6,7,8-tetrahydronaphthalen-1-yl]urea] | 0.9 °C
30 nM | – | – | CC1(C)C[C@@H](NC(=O)Nc2cccc3c2C[C@H](O)CC3)c2cc(F)ccc2O1 [Example 4, N-[(4R)-6-fluoro-2,2-dimethyl-3,4-dihydro-2H-chromen-4-yl]-N′-[(7R)-7-hydroxy-5,6,7,8-tetrahydronaphthalen-1-yl]urea] | 0.6 °C
11 nM | – | – | CC1(C)C[C@@H](NC(=O)Nc2cccc3[nH]ncc23)c2cccc(C(F)(F)F)c2O1 [Example 45, N-[(4R)-2,2-dimethyl-8-(trifluoromethyl)-3,4-dihydro-2H-chromen-4-yl]-N′-1H-indazol-4-ylurea] | 0.5 °C
17 nM | – | – | CC1(C)C[C@@H](NC(=O)Nc2cccc3cnc(N)cc23)c2ccc(C(F)(F)F)cc2O1 [Example 90, N-(3-aminoisoquinolin-5-yl)-N′-[(4R)-2,2-dimethyl-7-(trifluoromethyl)-3,4-dihydro-2H-chromen-4-yl]urea] | 1.0 °C

Compound | IC50 [1] | block of TRPV1-mediated increase in intracellular calcium concentration in response to capsaicin (human TRPV1) | block of TRPV1-mediated increase in intracellular calcium concentration in response to acid (human TRPV1) | Δ Temp [2]
N-[(4R)-8-tert-butyl-3,4-dihydro-2H-chromen-4-yl]-N-(3-methylisoquinolin-5-yl)urea, hydrochloride salt [Example 100] | 7 nM | – | – | 1.7 °C
